What was measured:
Assay type in all cases: cell-based
SK-BR-3 cells = assay: In vitro cell viability assay (CellTiter-Glo, 6 days), SK-BR-3; settings: Homo sapiens, SK-BR-3, 144 h, free antifolate drug, Table 1a
Experimental: (§1) FaDu, BxPC-3, HeLa, MV4-11, and RAJI cell lines were obtained from Deutsche Sammlung von Mikroorganismen und Zellkulturen ([…], Germany). Jurkat NucLight Red cells were obtained from Essen BioScience Inc. (Ann Arbor, MI, USA). SK-BR-3 and SK-OV-3 cells were cultured in McCoys 5A medium (Lonza; Walkersville, MD, USA) supplemented with 10% v/w Fetal Bovine Serum (FBS), Heat-inactivated (HI) (Gibco-Life Technologies; Carlsbad, CA) and 80 U/mL Pen/Strep (Gibco-Life Technologies), at 37° C. in a humidified incubator under 5% CO2 atmosphere. SW-620 cells were similarly maintained in RPMI 1640 medium (Lonza), containing 10% v/w FBS HI and 80 U/mL Pen/Strep. […]
(§2) After an overnight incubation, 10 serial log 10 dilutions of the free drugs were made in DMSO (Sigma-Aldrich). […] Cell viability was assessed after 6 days using a luminescent assay kit (CellTiter-Glo™ (CTG), Promega Corporation) according to the manufacturer's instructions. Percentage cell survival was calculated by dividing the measured luminescence for each free drug or ADC according to the concentration with the average mean of untreated cells (1% or 0.1% DMSO control (for free drugs) or 100% complete growth medium (for ADCs)) multiplied by 100. […]

SW-620 cells = assay: In vitro cell viability assay (CellTiter-Glo, 6 days), SW-620; settings: Homo sapiens, SW-620, 144 h, free antifolate drug, Table 1a
Experimental: as §1, §2

A-549 cells = assay: In vitro cell viability assay (CellTiter-Glo, 6 days), A-549; settings: Homo sapiens, A549, 144 h, free antifolate drug, Table 1a
Experimental: Human tumor cell lines SK-BR-3, SW-620, A-549, BT-474, Jurkat Clone E6-1, AU-565, and SK-OV-3 were obtained from American Type Culture Collection (Rockville, MD, USA). FaDu, BxPC-3, HeLa, MV4-11, and RAJI cell lines were obtained from Deutsche Sammlung von Mikroorganismen und Zellkulturen ([…], Germany). Jurkat NucLight Red cells were obtained from Essen BioScience Inc. (Ann Arbor, MI, USA). […]
Cells in complete growth medium were plated in 96-well plates (90 μL/well) and incubated at 37° C., 5% CO2 at the following cell densities: 6500 SK-BR-3, 4000 SW-620, 2500 A-549, 10000 BT-474, 3000 Jurkat Clone E6-1, 5000 AU-565, 1250 FaDu, 1250 BxPC-3, 1000 HeLa, 7500 MV4-11, 1000 RAJI, 3000 Jurkat NucLight Red, and 4000 SK-OV-3 cells per well. […] Cell viability was assessed after 6 days using a luminescent assay kit (CellTiter-Glo™ (CTG), Promega Corporation) according to the manufacturer's instructions. Percentage cell survival was calculated by dividing the measured luminescence for each free drug or ADC according to the concentration with the average mean of untreated cells (1% or 0.1% DMSO control (for free drugs) or 100% complete growth medium (for ADCs)) multiplied by 100. […]

Human tumor cell lines = assay: In vitro cell viability assays, free antifolate drugs, overall comparison; settings: for antifolate activity compared with talotrexin: Tables 1a-1d
Experimental: Human tumor cell lines SK-BR-3, SW-620, A-549, BT-474, Jurkat Clone E6-1, AU-565, and SK-OV-3 were obtained from American Type Culture Collection (Rockville, MD, USA). FaDu, BxPC-3, HeLa, MV4-11, and RAJI cell lines were obtained from Deutsche Sammlung von Mikroorganismen und Zellkulturen ([…], Germany). Jurkat NucLight Red cells were obtained from Essen BioScience Inc. (Ann Arbor, MI, USA). SK-BR-3 and SK-OV-3 cells were cultured in McCoys 5A medium (Lonza; Walkersville, MD, USA) supplemented with 10% v/w Fetal Bovine Serum (FBS), Heat-inactivated (HI) (Gibco-Life Technologies; Carlsbad, CA) and 80 U/mL Pen/Strep (Gibco-Life Technologies), at 37° C. in a humidified incubator under 5% CO2 atmosphere. SW-620 cells were similarly maintained in RPMI 1640 medium (Lonza), containing 10% v/w FBS HI and 80 U/mL Pen/Strep. A-549 cells were similarly maintained in F-12K Nutrient Mixture (1×) (Gibco-Life Technologies) media supplemented with 80 U/mL Pen/Strep and 5% v/w FBS, which was Qualified (Q) (Gibco-Life Technologies). BT-474 and AU-565 cells were similarly maintained in RPMI 1640 medium (Lonza), containing 10% v/w FBS, which was Qualified (Q) (Gibco-Life Technologies), and 80 U/mL Pen/Strep. Jurkat Clone E6-1, BxPC-3, HeLa, MV4-11, and RAJI cells were similarly maintained in RPMI 1640 medium (Lonza), containing 10% v/w FBS HI and 80 U/mL Pen/Strep. Jurkat NucLight Red cells were similarly maintained in RPMI 1640 medium (Lonza), containing 10% v/w FBS HI, 80 U/mL Pen/Strep and 0.5 μg/mL Puromycin (Gibco-Life Technologies). FaDu cells were cultured in EMEM medium (Lonza) supplemented with 10% v/w FBS HI (Gibco-Life Technologies), 1× GlutaMAX (Gibco-Life Technologies), and 80 U/mL Pen/Strep (Gibco-Life Technologies), at 37° C. in a humidified incubator under 5% CO2 atmosphere.
Cells in complete growth medium were plated in 96-well plates (90 μL/well) and incubated at 37° C., 5% CO2 at the following cell densities: 6500 SK-BR-3, 4000 SW-620, 2500 A-549, 10000 BT-474, 3000 Jurkat Clone E6-1, 5000 AU-565, 1250 FaDu, 1250 BxPC-3, 1000 HeLa, 7500 MV4-11, 1000 RAJI, 3000 Jurkat NucLight Red, and 4000 SK-OV-3 cells per well. After an overnight incubation, 10 serial log 10 dilutions of the free drugs were made in DMSO (Sigma-Aldrich). These free drug dose-response curves were 10-times further diluted in complete growth medium. For the ADCs according to the invention 10 serial log 10 dilutions were made in complete growth medium. 10 μL of a composition comprising a free drug or an ADC according to the invention was added to the assay plate (final DMSO content for free drugs was 1%). […] Cell viability was assessed after 6 days using a luminescent assay kit (CellTiter-Glo™ (CTG), Promega Corporation) according to the manufacturer's instructions. Percentage cell survival was calculated by dividing the measured luminescence for each free drug or ADC according to the concentration with the average mean of untreated cells (1% or 0.1% DMSO control (for free drugs) or 100% complete growth medium (for ADCs)) multiplied by 100.
Curves were fitted by non-linear regression using the sigmoidal dose-response equation with variable slope (four parameters) using curve-fitting software (GraphPad Prism, version 9.4.0 for Windows, GraphPad, San Diego, CA or Electronic Laboratory Notebook (ELN) add-in BioAssay, version 19.1.0.0218, Perkin Elmer, Waltham, MA). Relative IC50 values were calculated as the concentration that gives a response halfway between bottom and top of the curve, when using a 4-parameter logistic fit. Data were reported as mean IC50 value of at least one experiment performed in duplicate.

Row | SMILES | antifolate activity compared with talotrexin (Human tumor cell lines) | also measured
1 | Nc1nc(N)c2nc(CNc3ccc(C(=O)N[C@@H](CCCNC(=O)c4ccccc4C(=O)O)C(=O)O)cc3)cnc2n1 [Talotrexin] |  | IC50 (SK-BR-3 cells): 1.83 nM; IC50 (SW-620 cells): 1.74 nM; IC50 (A-549 cells): 1.7 nM
2 | Nc1ccc(C(=O)NCCC[C@H](NC(=O)c2ccc(CCc3ccc4nc(N)nc(N)c4c3)cc2)C(=O)O)cc1 [XJ4, (S)-5-(4-Aminobenzamido)-2-(4-(2-(2,4-diaminoquinazolin-6-yl)ethyl)benzamido)pentanoic acid] | less active than talotrexin | 
3 | Nc1ccc(C(=O)NCCC[C@H](NC(=O)c2ccc(NCc3cnc4nc(N)nc(N)c4n3)cc2)C(=O)O)cc1 [XT35, (S)-5-(4-Aminobenzamido)-2-(4-(((2,4-diaminopteridin-6-yl)methyl)amino)benzamido) pentanoic acid] | less active than talotrexin | 
4 | Nc1ccc(C(=O)NCCC[C@H](NC(=O)c2ccc(NCc3ccc4nc(N)nc(N)c4c3Cl)cc2)C(=O)O)c(-c2nnn[nH]2)c1 [XT110, (S)-5-(4-Amino-2-(1H-tetrazol-5-yl)benzamido)-2-(4-(((2,4-diamino-5-chloroquinazolin-6-yl)methyl)amino)benzamido)pentanoic acid] |  | antifolate activity compared with XX35 (Human tumor cell lines; 5-chloroquinazoline-2,4-diamine instead of pteridine-2,4-diamine): strongly increased the antifolate activity
5 | [N-]=[N+]=Nc1ccc(C(=O)NCCC[C@H](NC(=O)c2ccc(CCc3cnc4nc(N)nc(N)c4n3)cc2)C(=O)O)cc1 [XX5, (S)-5-(4-Azidobenzamido)-2-(4-(2-(2,4-diaminopteridin-6-yl)ethyl)benzamido) pentanoic acid] | less active than talotrexin | 
6 | Nc1ccc(C(=O)NCCC[C@H](NC(=O)c2ccc(CCc3cnc4nc(N)nc(N)c4n3)cc2)C(=O)O)cc1 [XX7, (S)-5-(4-Aminobenzamido)-2-(4-(2-(2,4-diaminopteridin-6-yl)ethyl)benzamido) pentanoic acid] | less active than talotrexin | 
7 | CN(Cc1cnc2nc(N)nc(N)c2n1)c1ccc(C(=O)N[C@@H](CCCNC(=O)c2ccc(N)cc2)C(=O)O)cc1 [XX12, (S)-5-(4-aminobenzamido)-2-(4-(((2,4-diaminopteridin-6-yl)methyl)(methyl)amino)benzamido)pentanoic acid] | less active than talotrexin | 

Source: patent publication US20250114466A1, “ANTIFOLATE LINKER-DRUGS AND ANTIBODY-DRUG CONJUGATES” (BYONDIS B.V., priority 2021, published 2025)
